Results as given in PubChem BioAssay (NCI).
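Values below derive from 48-hour exposures of cells grown in 96-well plates, with endpoints linearly interpolated between the two concentrations bracketing the appropriate inhibition level. TGI is the concentration that stops growth completely.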

Legend:
Assay in all cases: growth of human tumour cells (NCI), 48 h
[1] = system: DLD-1 colon
[2] = system: DMS 114 small cell lung
[3] = system: DMS 273 small cell lung
[4] = system: HOP-18 NSCLC
[5] = system: M19-MEL melanoma
[6] = system: XF 498 CNS
[7] = system: KM20L2 colon
[8] = system: LXFL 529 NSCLC
[9] = system: RXF-631 renal

SMILES | TGI [1] | TGI [2] | TGI [3] | TGI [4] | TGI [5] | TGI [6] | TGI [7] | TGI [8] | TGI [9]
COc1ccc(/C=C2\C(=O)N(C(=O)c3ccc(NC(C)=O)cc3)N=C2C)cc1OC | > 100 µM | > 100 µM | > 100 µM | > 100 µM | > 100 µM | > 100 µM |  |  | 
Cc1ccccc1NC(=O)C(=O)C(C1OC(=O)c2ccccc21)[N+](=O)[O-] (stereo not drawn) | > 100 µM | > 100 µM | > 100 µM |  | > 100 µM | > 100 µM | > 100 µM | > 100 µM | 
CC(C)C(Sc1nc(-c2ccccc2)c(-c2ccccc2)[nH]1)C(=O)N/N=C/c1ccc(Cl)cc1 (stereo not drawn) | > 100 µM | 71.5 µM | 39.6 µM |  | 34.6 µM |  | 46.2 µM | 82.8 µM | 
COC1CCC(O)C(CO)O1 (stereo not drawn) | > 100 µM |  |  |  | > 100 µM | > 100 µM | > 100 µM | > 100 µM | 
CCOC(=O)c1ccc(N2C(=O)/C(=C/c3ccc(N(CCC#N)CCC#N)cc3)N=C2c2cc([N+](=O)[O-])ccc2Cl)cc1 | > 100 µM | > 100 µM | > 100 µM | > 100 µM | > 100 µM |  | > 100 µM | > 100 µM | > 100 µM
CCO/C(O)=c1/s/c(=C2/SC(=S)N(c3ccc(C)cc3)C2=O)n(-c2ccccc2)c1=N |  |  |  | > 100 µM | > 100 µM |  |  | > 100 µM | 
Cc1c2ccccc2c(=O)n2c(-c3ccccn3)cccc12 | > 100 µM | > 100 µM | > 100 µM | > 100 µM | > 100 µM | > 100 µM | > 100 µM |  | 
CCOc1cc2c(cc1OC)c[n+](C)c1c3cc(OC)c(OC)cc3ccc21 | > 100 µM | 51.3 µM | > 100 µM | > 80.1 µM | > 100 µM |  | > 100 µM | > 100 µM | 44.9 µM
Cc1cnoc1/N=C1\C=C(Nc2oncc2C)C(=O)c2ccccc21 | > 100 µM | > 100 µM | > 100 µM | > 100 µM |  | > 100 µM | > 100 µM | > 100 µM | > 100 µM
